In brackets after ≈: the same amount, converted by molar mass. Several values for one entry are separate records, joined by “and”; a condition that tells them apart may be missing. Identical values can stand only once. One block for each molecule: values may come before it.
Experiments:
Experiment in all cases: ≥ marks a high value that may be exact or a test limit, other limits are often not marked, values filed in µg/mL are converted to µM
[1] = system: Aspergillus brasiliensis DSM 1988
[2] = system: Aspergillus niger PMC 7101
[3] = system: Aspergillus terreus PMC 7201
[4] = system: Candida albicans ATCC 10231
[5] = system: Candida albicans ATCC 24433
[6] = system: Candida glabrata PMC 0805
Candida krusei PMC 0610 = system: Candida krusei PMC 0610
Candida krusei PMC 0624 = system: Candida krusei PMC 0624
[7] = system: Candida parapsilosis DSM 11224
[8] = system: Candida parapsilosis PMC 0711
[9] = system: Candida tropicalis DSM 11953
[10] = system: Corynebacterium jeikeium ATCC BAA-949
[11] = system: Cryptococcus neoformans DSM 11759
[12] = system: Microsporum canis DSM 10708
[13] = system: Trichophyton mentagrophytes DSM 4870
[14] = system: Trichophyton mentagrophytes PMC 6528
[15] = system: Trichophyton mentagrophytes PMC 6529
[16] = system: Trichophyton mentagrophytes PMC 6530
[17] = system: Candida albicans NCYC 1467
[18] = system: Enterococcus faecalis NCTC 12697
[19] = system: Escherichia coli NCTC 10418
[20] = system: Klebsiella pneumoniae ATCC 43816
[21] = system: Pseudomonas aeruginosa ATCC 27853
[22] = system: Staphylococcus aureus NCTC 10788
[23] = system: Staphylococcus aureus NCTC 12493
[24] = system: Acinetobacter baumannii BCRC 14B0100
Escherichia coli BL21 = system: Escherichia coli BL21
[25] = system: Pseudomonas aeruginosa PAO1
[26] = system: Staphylococcus aureus ATCC 6538P
[27] = system: Staphylococcus aureus ATCC BAA-41
[28] = system: Staphylococcus epidermidis
[29] = system: Klebsiella pneumoniae E406-17
[30] = system: Pseudomonas aeruginosa E411-17
[31] = system: Staphylococcus aureus M838-17
Escherichia coli 078 = system: Escherichia coli 078
Escherichia coli 987P = system: Escherichia coli 987P
Escherichia coli K88 = system: Escherichia coli K88
Escherichia coli K99 = system: Escherichia coli K99
Escherichia coli UB1005 = system: Escherichia coli UB1005
[32] = system: Lacticaseibacillus rhamnosus 1.0385
[33] = system: Lacticaseibacillus rhamnosus 1.0386
[34] = system: Lacticaseibacillus rhamnosus 1.0911
[35] = system: Lacticaseibacillus rhamnosus 1.9205
[36] = system: Lacticaseibacillus rhamnosus 7469
[37] = system: Lactiplantibacillus plantarum 8014
[38] = system: Salmonella enterica subsp. enterica serovar Typhimurium C77-31
[39] = system: Staphylococcus aureus ATCC 25923
[40] = system: Staphylococcus aureus ATCC 29213
[41] = system: Staphylococcus epidermidis ATCC 12228
[42] = system: Streptococcus agalactiae ATCC 13813

MIC [1]: ≥ 128 µM
MIC [2]: ≥ 128 µM
MIC [3]: ≥ 128 µM
MIC [4]: 16 µM and 21.3 µM
MIC [5]: ≥ 32 µM
MIC [6]: ≥ 64 µM
MIC (Candida krusei PMC 0610): ≥ 128 µM
MIC (Candida krusei PMC 0624): ≥ 32 µM
MIC [7]: ≥ 128 µM
MIC [8]: ≥ 128 µM
MIC [9]: 16 µM (≈ 23.3 µg/mL)
MIC [10]: 16 µM (≈ 23.3 µg/mL)
MIC [11]: ≥ 32 µM
MIC [12]: ≥ 64 µM
MIC [13]: 16 µM (≈ 23.3 µg/mL)
MIC [14]: ≥ 32 µM
MIC [15]: ≥ 32 µM
MIC [16]: ≥ 64 µM
SMILES: CC[C@H](C)[C@H](NC(=O)CNC(=O)[C@H](CC(N)=O)NC(=O)[C@H](CC(C)C)NC(=O)[C@@H](NC(=O)[C@H](CCCN=C(N)N)NC(=O)CNC(=O)[C@@H](NC(=O)[C@@H](NC(=O)[C@@H]1CCCN1C(=O)[C@H](Cc1ccccc1)NC(=O)[C@@H](N)Cc1ccccc1)C(C)C)[C@@H](C)CC)[C@@H](C)CC)C(=O)N[C@@H](CC(C)C)C(N)=O [FFPVIGRILNGIL]

MIC [17]: 8 µM (≈ 15.2 µg/mL)
MIC [18]: ≥ 256 µM
MIC [19]: 16 µM (≈ 30.4 µg/mL)
MIC [20]: ≥ 32 µM
MIC [21]: 64 µM (≈ 121 µg/mL)
MIC [22]: 8 µM (≈ 15.2 µg/mL)
MIC [23]: 8 µM (≈ 15.2 µg/mL)
SMILES: CC[C@H](C)[C@@H]1NC(=O)[C@H](C)NC(=O)[C@@H](NC(=O)[C@H](Cc2ccccc2)NC(=O)[C@@H](NC(=O)[C@H](CCCCN)NC(=O)[C@H](Cc2c[nH]c3ccccc23)NC(=O)[C@@H]2CCCN2C(=O)[C@H](Cc2c[nH]c3ccccc23)NC(=O)[C@H](Cc2ccccc2)NC(=O)[C@@H](N)CCCCN)[C@@H](C)CC)CSSC[C@@H](C(=O)O)NC(=O)[C@H](CCCCN)NC(=O)[C@H](CCCCN)NC(=O)[C@H]([C@@H](C)O)NC1=O [KFWPWKIFCAITKKC]

MIC [24]: 0.778 µM and 0.389 µM
SMILES: CC[C@H](C)[C@H](NC(=O)[C@H](CCCN=C(N)N)NC(=O)[C@H](CCC(N)=O)NC(=O)[C@@H](NC(=O)[C@@H](NC(=O)[C@H](CCCN=C(N)N)NC(=O)[C@H](CCCCN)NC(C)=O)[C@@H](C)CC)C(C)C)C(=O)N[C@@H](CCCCN)C(=O)N[C@@H](CC(=O)O)C(=O)N[C@@H](Cc1ccccc1)C(=O)N[C@@H](CC(C)C)C(=O)N[C@@H](CCCN=C(N)N)C(=O)N[C@@H](C)C(=O)NCC(=O)N1CCC[C@H]1C(=O)N[C@H](C(=O)N[C@@H](CCCCN)C(=O)N[C@@H](CC(=O)O)C(=O)N[C@@H](Cc1ccccc1)C(=O)N[C@@H](CC(C)C)C(=O)N[C@@H](CCCN=C(N)N)C(N)=O)[C@@H](C)CC [KRIVQRIKDFLRAGPIKDFLR]

MIC (Escherichia coli BL21): 0.707 µM (≈ 1.29 µg/mL)
MIC [25]: 1.41 µM (≈ 2.59 µg/mL)
MIC [26]: 1.41 µM (≈ 2.59 µg/mL)
MIC [27]: 4 µM (≈ 7.31 µg/mL)
MIC [28]: 0.5 µM (≈ 0.914 µg/mL)
SMILES: CC[C@H](C)[C@H](NC(=O)[C@H](CCCCN)NC(=O)[C@H](CCCCN)NC(=O)[C@H](Cc1ccccc1)NC(=O)[C@H](CC(C)C)NC(=O)[C@H](CCCCN)NC(=O)[C@H](Cc1c[nH]c2ccccc12)NC(=O)[C@@H](N)CCCCN)C(=O)NCC(=O)N[C@@H](CCCCN)C(=O)N[C@H](C(=O)N[C@@H](CC(C)C)C(=O)N[C@@H](CCCCN)C(=O)N[C@H](C(=O)N[C@@H](CC(C)C)C(=O)O)C(C)C)C(C)C [KWKLFKKIGKVLKVL]

MIC [29]: ≥ 50 µM
MIC [30]: 25 µM (≈ 32.5 µg/mL)
MIC [31]: 12.5 µM (≈ 16.3 µg/mL)
SMILES: C[C@H](NC(=O)[C@H](Cc1c[nH]c2ccccc12)NC(=O)[C@H](Cc1c[nH]c2ccccc12)NC(=O)[C@H](Cc1c[nH]c2ccccc12)NC(=O)[C@H](Cc1c[nH]c2ccccc12)NC(=O)[C@H](CCCN=C(N)N)NC(=O)[C@H](CCCN=C(N)N)NC(=O)[C@@H](N)CCCN=C(N)N)C(N)=O [RRRWWWWA]

MIC (Escherichia coli 078): 16 µM (≈ 30.8 µg/mL)
MIC (Escherichia coli 987P): 2 µM (≈ 3.85 µg/mL)
MIC (Escherichia coli K88): 8 µM (≈ 15.4 µg/mL)
MIC (Escherichia coli K99): 4 µM (≈ 7.71 µg/mL)
MIC (Escherichia coli UB1005): 8 µM (≈ 15.4 µg/mL)
MIC [32]: ≥ 128 µM
MIC [33]: ≥ 128 µM
MIC [34]: ≥ 128 µM
MIC [35]: ≥ 128 µM
MIC [36]: ≥ 128 µM
MIC [21]: 4 µM (≈ 7.71 µg/mL)
MIC [38]: ≥ 128 µM
MIC [39]: 8 µM (≈ 15.4 µg/mL)
MIC [40]: 4 µM (≈ 7.71 µg/mL)
MIC [41]: 4 µM (≈ 7.71 µg/mL)
MIC [42]: 8 µM (≈ 15.4 µg/mL)
SMILES: CC[C@H](C)[C@H](NC(=O)[C@H](CCCCN)NC(=O)[C@@H](NC(=O)[C@@H](N)Cc1c[nH]c2ccccc12)[C@@H](C)CC)C(=O)N[C@@H](Cc1c[nH]c2ccccc12)C(=O)N[C@@H](CCCCN)C(=O)N[C@@H](CCCCN)C(=O)N[C@H](C(=O)N[C@H](C(=O)N[C@@H](CCCCN)C(=O)N[C@@H](CCCCN)C(=O)N[C@@H](Cc1c[nH]c2ccccc12)C(=O)N[C@@H](CCCCN)C(=O)N[C@@H](CCCCN)C(=O)O)[C@@H](C)CC)[C@@H](C)CC [WIKIWKKIIKKWKK]
MIC [37]: ≥ 128 µM

Reference: DBAASP
